Source: patent publication US12037344B2, “NLRP3 modulators” (INNATE TUMOR IMMUNITY, INC., priority 2018, dated 2024)

Key:
TLR7 = target: T1, TLR7 (Homo sapiens, UniProt Q9NYK1); assay: In vitro human TLR7 binding reporter assay (HEK-Blue, NF-kB/AP1-inducible SEAP); format: cell-based; conditions: activity range class, read-out: TLR7 Agonist EC50
T1 construct: human HEK-Blue cells co-expressing a TLR7 or TLR8 gene
T1 sequence (Q9NYK1 27-1049): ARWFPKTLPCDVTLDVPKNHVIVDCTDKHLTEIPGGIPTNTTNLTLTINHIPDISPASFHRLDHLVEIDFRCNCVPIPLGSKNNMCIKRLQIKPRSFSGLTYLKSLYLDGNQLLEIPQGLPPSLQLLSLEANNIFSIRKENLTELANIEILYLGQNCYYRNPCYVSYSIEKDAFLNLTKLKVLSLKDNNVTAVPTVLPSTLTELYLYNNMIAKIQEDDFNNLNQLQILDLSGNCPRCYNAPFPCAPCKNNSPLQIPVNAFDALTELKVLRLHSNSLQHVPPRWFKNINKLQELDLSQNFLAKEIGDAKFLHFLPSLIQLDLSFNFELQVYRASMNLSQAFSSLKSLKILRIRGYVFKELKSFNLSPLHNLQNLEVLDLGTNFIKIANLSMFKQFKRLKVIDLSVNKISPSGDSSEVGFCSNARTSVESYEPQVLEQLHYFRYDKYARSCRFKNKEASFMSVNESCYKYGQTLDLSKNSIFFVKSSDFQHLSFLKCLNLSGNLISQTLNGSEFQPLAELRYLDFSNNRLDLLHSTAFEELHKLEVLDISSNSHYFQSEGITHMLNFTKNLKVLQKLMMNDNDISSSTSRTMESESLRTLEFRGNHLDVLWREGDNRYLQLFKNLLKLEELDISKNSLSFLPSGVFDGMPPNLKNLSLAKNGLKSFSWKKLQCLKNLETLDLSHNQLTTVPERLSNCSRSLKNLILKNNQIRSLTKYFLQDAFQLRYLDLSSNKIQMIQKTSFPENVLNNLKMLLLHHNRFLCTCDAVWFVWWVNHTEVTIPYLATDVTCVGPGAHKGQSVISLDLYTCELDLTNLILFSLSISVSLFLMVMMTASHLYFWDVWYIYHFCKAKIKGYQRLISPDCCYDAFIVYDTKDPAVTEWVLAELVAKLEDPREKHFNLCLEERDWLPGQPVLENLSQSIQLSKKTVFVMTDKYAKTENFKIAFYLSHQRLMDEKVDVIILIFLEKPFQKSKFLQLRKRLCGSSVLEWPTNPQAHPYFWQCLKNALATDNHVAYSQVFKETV
Procedure, shortened: (§1)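 EC50s come from NF-kB/AP1-driven SEAP secretion in HEK-Blue cells expressing TLR7 or TLR8, measured with Quanti-Blue after an 18 h compound incubation. Maximal response is defined by a 50 μM reference standard.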

TLR8 = target: T2, TLR8 (Homo sapiens, UniProt Q9NR97); assay: In vitro human TLR8 binding reporter assay (HEK-Blue, NF-kB/AP1-inducible SEAP); format: cell-based; conditions: activity range class, read-out: TLR8 Agonist EC50
T2 construct: human HEK-Blue cells co-expressing a TLR7 or TLR8 gene
T2 sequence (Q9NR97 27-1041): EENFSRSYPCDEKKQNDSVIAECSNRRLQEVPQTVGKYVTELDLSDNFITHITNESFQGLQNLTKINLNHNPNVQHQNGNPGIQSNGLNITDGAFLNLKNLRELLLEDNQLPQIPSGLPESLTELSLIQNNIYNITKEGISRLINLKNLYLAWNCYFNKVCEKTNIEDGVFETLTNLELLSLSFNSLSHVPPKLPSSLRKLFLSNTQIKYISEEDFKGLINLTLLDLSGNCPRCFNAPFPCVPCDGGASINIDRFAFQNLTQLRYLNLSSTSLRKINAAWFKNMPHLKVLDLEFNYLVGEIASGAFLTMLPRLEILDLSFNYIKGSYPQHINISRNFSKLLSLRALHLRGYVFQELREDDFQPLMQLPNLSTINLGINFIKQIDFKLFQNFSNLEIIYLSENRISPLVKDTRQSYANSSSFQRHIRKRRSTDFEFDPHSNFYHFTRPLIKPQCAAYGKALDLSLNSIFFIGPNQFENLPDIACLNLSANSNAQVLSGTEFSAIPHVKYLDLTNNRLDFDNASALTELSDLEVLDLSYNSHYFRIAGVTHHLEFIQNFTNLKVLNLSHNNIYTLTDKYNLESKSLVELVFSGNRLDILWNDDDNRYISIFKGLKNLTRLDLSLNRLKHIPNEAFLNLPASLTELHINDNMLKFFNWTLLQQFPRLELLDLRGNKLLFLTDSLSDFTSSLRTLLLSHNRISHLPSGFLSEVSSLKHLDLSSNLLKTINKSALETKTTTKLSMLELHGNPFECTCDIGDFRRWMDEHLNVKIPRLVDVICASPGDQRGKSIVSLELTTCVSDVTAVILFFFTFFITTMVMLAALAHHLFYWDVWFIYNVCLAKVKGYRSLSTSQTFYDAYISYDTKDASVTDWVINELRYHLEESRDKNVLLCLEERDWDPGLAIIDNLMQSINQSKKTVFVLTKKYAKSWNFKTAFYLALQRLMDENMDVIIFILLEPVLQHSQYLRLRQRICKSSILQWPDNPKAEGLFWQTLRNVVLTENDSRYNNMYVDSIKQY
Procedure, shortened: as §1

THP-1 cells = assay: Measurement of IL-1β production, hTRF protocol (second alternative procedure), THP-1 cells; format: cell-based, human; conditions: Homo sapiens, THP-1, IL-1β production, human; read-out: NLRP3 hILIB EC50
Procedure, shortened: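 Compounds, dilution series starting at a final 10 μM, were incubated 2 hours at 37° C with PMA-differentiated THP-1 cells (50 ng/ml overnight; 50,000 cells/well, 2% FBS RPMI). Released IL-1β quantified in supernatant by hTRF kit with 1:40 antibody dilution, 4° C overnight, 665/615 nm ratio.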

With Nc1nc2cc(-c3cc[nH]n3)ccc2c2nn(CC3(O)CCOCC3)cc12 [Example 320] the EC50 (TLR7) was over 100 µM, the EC50 (TLR8) was over 100 µM and the EC50 (THP-1 cells) was 6.57 µM.

Nc1nc2cc(-c3cc[nH]n3)ccc2c2nn(CCF)cc12 [Example 321] was tested, and the EC50 (TLR7) was over 100 µM, the EC50 (TLR8) was over 100 µM and the EC50 (THP-1 cells) was 0.19 µM.

COC(C)(C)Cn1cc2c(N)nc3cc(-c4cc[nH]n4)ccc3c2n1 [Example 322] was tested, and the EC50 (TLR7) was over 100 µM, the EC50 (TLR8) was over 100 µM and the EC50 (THP-1 cells) was 0.83 µM.

Nc1nc2cc(-c3cc[nH]n3)ccc2c2nn(C3COCC3O)cc12 (stereo not drawn) [Example 323] was tested, and the EC50 (TLR7) was over 100 µM, the EC50 (TLR8) was over 100 µM and the EC50 (THP-1 cells) was 0.78 µM.

With CC(C)n1cc2c(N)nc3cc(-c4cc[nH]n4)ccc3c2n1 [Example 326] the EC50 (TLR7) was over 100 µM, the EC50 (TLR8) was over 100 µM and the EC50 (THP-1 cells) was 0.22 µM.

In the case of Nc1nc2cc(-c3cc[nH]n3)ccc2c2nn(C[C@H]3CCCO3)cc12 [Example 329], the EC50 (TLR7) is reported as over 100 µM, the EC50 (TLR8) is reported as over 100 µM and the EC50 (THP-1 cells) is reported as 0.31 µM.

In the case of Nc1nc2cc(-c3cc[nH]n3)ccc2c2nn(C[C@@H]3CCCO3)cc12 [Example 330], the EC50 (TLR7) is reported as over 100 µM, the EC50 (TLR8) is reported as over 100 µM and the EC50 (THP-1 cells) is reported as 0.17 µM.

With COC(C)Cn1cc2c(N)nc3cc(-c4cc[nH]n4)ccc3c2n1 (stereo not drawn) [Example 331] the EC50 (TLR7) was over 100 µM, the EC50 (TLR8) was over 100 µM and the EC50 (THP-1 cells) was 0.08 µM.

Work on C[C@@H](CO)Cn1cc2c(N)nc3cc(-c4cc[nH]n4)ccc3c2n1 [Example 332] yielded an EC50 (TLR7) of over 100 µM, an EC50 (TLR8) of over 100 µM and an EC50 (THP-1 cells) of 0.21 µM.

In the case of Nc1nc2cc(-c3cc[nH]n3)ccc2c2nn(CCOCC(F)(F)F)cc12 [Example 333], the EC50 (TLR7) is reported as over 100 µM, the EC50 (TLR8) is reported as over 100 µM and the EC50 (THP-1 cells) is reported as 0.24 µM.

In the case of CCn1cc2c(N)nc3cc(-c4cc[nH]n4)ccc3c2n1 [Example 334], the EC50 (TLR7) is reported as over 100 µM, the EC50 (TLR8) is reported as over 100 µM and the EC50 (THP-1 cells) is reported as 0.11 µM.

Nc1nc2cc(-c3cc[nH]n3)ccc2c2nn(CC3CC(F)(F)C3)cc12 [Example 335] showed an EC50 (TLR7) of over 100 µM, an EC50 (TLR8) of over 100 µM and an EC50 (THP-1 cells) of 0.39 µM.

Work on COCC(C)n1cc2c(N)nc3cc(-c4cc[nH]n4)ccc3c2n1 (stereo not drawn) [Example 336] yielded an EC50 (TLR7) of over 100 µM, an EC50 (TLR8) of over 100 µM and an EC50 (THP-1 cells) of 0.47 µM.

Nc1nc2cc(-c3cc[nH]n3)ccc2c2nn(C3CCC(O)C3)cc12 (stereo not drawn) [Example 339] gave an EC50 (TLR7) of over 100 µM, an EC50 (TLR8) of over 100 µM and an EC50 (THP-1 cells) of 0.21 µM.

CC1(O)CCCC1n1cc2c(N)nc3cc(-c4cc[nH]n4)ccc3c2n1 (stereo not drawn) [Example 343] gave an EC50 (TLR7) of over 100 µM, an EC50 (TLR8) of over 100 µM and an EC50 (THP-1 cells) of 0.61 µM.

In the case of Nc1nc2cc(-c3cc[nH]n3)ccc2c2nn(CCC(F)(F)F)cc12 [Example 348], the EC50 (TLR7) is reported as over 100 µM, the EC50 (TLR8) is reported as over 100 µM and the EC50 (THP-1 cells) is reported as 0.62 µM.

Nc1nc2cc(-c3cc[nH]n3)ccc2c2nn(CCOC(F)F)cc12 [Example 349] gave an EC50 (TLR7) of over 100 µM, an EC50 (TLR8) of over 100 µM and an EC50 (THP-1 cells) of 0.35 µM.

In the case of Nc1nc2cc(-c3cc[nH]n3)ccc2c2nn(CCCOC(F)(F)F)cc12 [Example 350], the EC50 (TLR7) is reported as over 100 µM, the EC50 (TLR8) is reported as over 100 µM and the EC50 (THP-1 cells) is reported as 0.35 µM.

Nc1nc2cc(-c3cc[nH]n3)ccc2c2nn(CCCCO)cc12 [Example 351] showed an EC50 (TLR7) of over 100 µM, an EC50 (TLR8) of over 100 µM and an EC50 (THP-1 cells) of 0.64 µM.

For Nc1nc2cc(-c3cc[nH]n3)ccc2c2nn(CCOC(F)(F)F)cc12 [Example 352], the EC50 (TLR7) was over 100 µM, the EC50 (TLR8) was over 100 µM and the EC50 (THP-1 cells) was 0.08 µM.
